The target of one assay is Rho kinase 1 (ROCK1) (Homo sapiens, UniProt Q13464). Kind of assay: In vitro inhibitory activity assay ROCK1 (ADP-Glo). The assay is classed as biochemical. The settings on record: ATP 200 μM, Cheng-Prusoff from IC50; read-out: ROCK 1 (Ki, range of activity). The method, then: (§1) The effectiveness of compounds of the present invention to inhibit Rho kinase activity can be determined in a 10 μl assay containing 40 mM Tris pH7.5, 20 mM MgCl2 0.1 mg/mL BSA, 50 μM DTT and 2.5 μM peptide substrate (Myelin Basic Protein) using an ADP-Glo kit (Promega). Compounds were dissolved in DMSO such that the final concentration of DMSO was 1% in the assay. All reactions/incubations are performed at 25° C. Compound (2 ul) and either Rho kinase 1 or 2 (4 μl) were mixed and incubated for 30 mins. Reactions were initiated by addition of ATP (4μ1) such that the final concentration of ATP in the assay was 200 μM. After a 1 hour incubation 10 μl of ADP-Glo Reagent was added and after a further 1 hour incubation 20 ul of Kinase Detection Buffer was added and the mixture incubated for a further 45 minutes. The luminescent signal was measured on a luminometer. […] Compounds were tested in dose-response format and the inhibition of kinase activity was calculated at each concentration of compound. To determine the IC50 (concentration of compound required to inhibit 50% of the enzyme activity) data were fit to a plot of % inhibition vs Log10 compound concentration using a sigmoidal fit with a variable slope and fixing the maximum to 100% and the minimum to 0%. To determine the Ki values the Cheng-Prusoff equation was utilized (Ki=IC50/(1+[S]/Km).
Rho kinase 1 (ROCK1), sequence (Q13464 whole entry): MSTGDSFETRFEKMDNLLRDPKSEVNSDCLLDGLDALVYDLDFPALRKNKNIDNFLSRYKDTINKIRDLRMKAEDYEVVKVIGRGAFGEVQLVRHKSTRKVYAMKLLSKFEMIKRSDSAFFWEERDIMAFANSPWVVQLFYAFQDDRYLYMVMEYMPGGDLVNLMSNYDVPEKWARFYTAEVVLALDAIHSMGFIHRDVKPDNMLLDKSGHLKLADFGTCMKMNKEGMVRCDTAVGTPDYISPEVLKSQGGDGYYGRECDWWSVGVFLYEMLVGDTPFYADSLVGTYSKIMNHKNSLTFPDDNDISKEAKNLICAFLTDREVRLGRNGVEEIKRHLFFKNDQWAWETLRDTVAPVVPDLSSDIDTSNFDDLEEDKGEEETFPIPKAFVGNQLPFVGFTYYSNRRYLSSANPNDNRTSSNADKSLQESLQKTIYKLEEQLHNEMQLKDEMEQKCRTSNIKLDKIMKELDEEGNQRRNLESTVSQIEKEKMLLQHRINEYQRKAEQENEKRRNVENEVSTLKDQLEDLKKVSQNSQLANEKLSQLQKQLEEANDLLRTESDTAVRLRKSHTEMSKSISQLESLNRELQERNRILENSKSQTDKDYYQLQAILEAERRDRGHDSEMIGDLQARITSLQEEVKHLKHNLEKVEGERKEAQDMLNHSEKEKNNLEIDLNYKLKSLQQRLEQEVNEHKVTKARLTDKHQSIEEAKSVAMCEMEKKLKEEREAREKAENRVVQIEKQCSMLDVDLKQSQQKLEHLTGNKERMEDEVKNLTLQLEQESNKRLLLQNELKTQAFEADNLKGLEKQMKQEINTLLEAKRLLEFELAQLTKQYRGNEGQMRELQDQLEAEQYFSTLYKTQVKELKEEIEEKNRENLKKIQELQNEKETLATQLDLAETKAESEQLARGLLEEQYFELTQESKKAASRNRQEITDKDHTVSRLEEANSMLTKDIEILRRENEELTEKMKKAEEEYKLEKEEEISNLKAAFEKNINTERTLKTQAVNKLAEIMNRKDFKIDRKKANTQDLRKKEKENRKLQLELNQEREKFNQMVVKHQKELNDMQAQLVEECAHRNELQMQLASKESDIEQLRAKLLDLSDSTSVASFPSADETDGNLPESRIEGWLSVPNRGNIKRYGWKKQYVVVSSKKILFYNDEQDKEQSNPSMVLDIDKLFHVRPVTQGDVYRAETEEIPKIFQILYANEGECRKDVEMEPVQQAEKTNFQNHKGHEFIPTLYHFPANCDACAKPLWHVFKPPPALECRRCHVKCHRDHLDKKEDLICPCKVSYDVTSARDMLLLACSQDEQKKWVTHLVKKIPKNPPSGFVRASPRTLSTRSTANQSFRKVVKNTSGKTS
(ADP-Glo first removes unused ATP, then detects ADP through luciferase.)

For the next assay, the target named is Rho kinase 2 (ROCK2) (Homo sapiens, UniProt O75116). Kind of assay: In vitro inhibitory activity assay ROCK2 (ADP-Glo). The assay is classed as biochemical. The settings on record: ATP 200 μM, Cheng-Prusoff from IC50; read-out: ROCK2 (Ki, range of activity). The method, then:
as §1

A further assay deals with PKA (Homo sapiens, UniProt P17612). Kind of assay: In vitro inhibitory activity assay for PKA (ADP-Glo), reported as selectivity ratio vs ROCK2. The assay is classed as biochemical. The settings on record: Ki value for PKA divided by Ki value of ROCK2. As for the experimental part:
The effectiveness of compounds of the present invention to inhibit PKA activity can be determined in a 10 μl assay containing 40 mM Tris pH7.5, 20 mM MgCl2 0.1 mg/ml BSA, 50 μM DTT and 260 μM peptide substrate (kemptide) using an ADP-Glo kit (Promega). Compounds were dissolved in DMSO such that the final concentration of DMSO was 1% in the assay. All reactions/incubations are performed at 25° C. Compound and PKA enzyme (6 μl) were mixed and incubated for 30 mins. Reactions were initiated by addition of ATP (4 μl ) such that the final concentration of ATP in the assay was 10 μM. After a 30 minute incubation 10 μl of ADP-Glo Reagent was added and after a further 1 hour incubation 20 μl of Kinase Detection Buffer was added and the mixture incubated for a further 45 minutes. The luminescent signal was measured on a luminometer. […] Compounds were tested in dose-response format and the inhibition of kinase activity was calculated at each concentration of compound. To determine the IC50 (concentration of compound required to inhibit 50% of the enzyme activity) data were fit to a plot of % inhibition vs Logio compound concentration using a sigmoidal fit with a variable slope and fixing the maximum to 100% and the minimum to 0%. To determine the Ki values the Cheng-Prusoff equation was utilized (Ki=IC50/(1+[S]/Km).
In vitro inhibitory activities for PKA were reported as selectivity ratio vs. ROCK-2.

In assay [1] the test system is cch-evoked bronchoconstriction. The assay can be described thus: Experimental bronchospasm (carbachol-induced bronchoconstriction, Konzett & Roessler). In kind it is in vivo, Male CD Sprague Dawley rats. The settings on record: iv; rat, dose 10 μg/Kg intratracheal, 1 hour after administration, carbachol 80 μg/kg i.v.; read-out: Inhibition % (±s.e. mean) of cch-evoked bronchoconstriction. The method, then: Male CD Sprague Dawley rats (220-250 g) were purchased from Charles River Laboratories Italy (Calco, Lecco). Prior to use animals were acclimated for at least 5 days 20 to the local vivarium conditions (room temperature: 20-24° C.; relative humidity: 40-70%), having free access to standard rat chow and softened tap water. All the procedures were performed in animal operating rooms according to ethical guidelines for the conduct of animal research (D. L.vo 116/92).
Rats were anaesthetized with a combination of anesthetics (Zoletil 20 mg/kg+Xylazine 5 mg/kg, ip) for the i.t. administration. A laryngoscope was moved forward into the mouth to visualize the trachea and guide the insertion of the tip of a custom-made small diameter cannula directly into the trachea and located 1-2 mm above the bifurcation.
In order to assess the residual inhibitory activity of test compounds 1 hour after their administration, rats were surgically prepared. Body temperature was kept constant at 37° C. by a heated blanket.
The trachea was cannulated and the lungs were ventilated artificially with a constant volume ventilator (rodent ventilator mod. 7025, Ugo Basile, Comerio, Varese, Italy) at a frequency of 80 strokes/min and at a tidal volume of 10 ml/kg. To avoid spontaneous breathing, the animals were injected intravenously (i.v.) with pancuronium bromide (2 mg/kg).
Bronchoconstriction was induced by the i.v. injection of carbachol (cch) 80 μg/kg. In control experiments, repeated injections of this dose produced reproducible short-lasting (1-2 min duration) bronchospasms. Bronchoconstriction, quantified as a reduction of tidal volume, was evaluated according to the method described by Konzett & Roessler (1). Systemic blood pressure and changes in airway resistance were monitored with a digital pressure transducer.
After stabilisation of artificial breathing and blood pressure, animals were injected (i.v.) with cch every 3 min, until 3 stable and reproducible basal responses were obtained. […] The effect of test compounds was 15 expressed as % inhibition of cch-evoked bronchoconstriction in time-matched, vehicle-treated, animals (controls).
Tested compounds were dissolved in dH2O and 1% Tween-80 or 0,001% HCl and further diluted to target concentrations. Tested compounds were instilled locally into the trachea in a volume of 125 μl.
All data are presented as mean±s.e.mean. The % inhibition of experimental bronchospasm was calculated comparing the drug-treated with the vehicle-treated control animals. Data analysis was performed using GraphPad Prism software.

Broadly, the Ki is the dissociation constant of the complex between target and ligand, obtained from inhibition or displacement.

Rho kinase 2 (ROCK2), sequence (O75116 whole entry): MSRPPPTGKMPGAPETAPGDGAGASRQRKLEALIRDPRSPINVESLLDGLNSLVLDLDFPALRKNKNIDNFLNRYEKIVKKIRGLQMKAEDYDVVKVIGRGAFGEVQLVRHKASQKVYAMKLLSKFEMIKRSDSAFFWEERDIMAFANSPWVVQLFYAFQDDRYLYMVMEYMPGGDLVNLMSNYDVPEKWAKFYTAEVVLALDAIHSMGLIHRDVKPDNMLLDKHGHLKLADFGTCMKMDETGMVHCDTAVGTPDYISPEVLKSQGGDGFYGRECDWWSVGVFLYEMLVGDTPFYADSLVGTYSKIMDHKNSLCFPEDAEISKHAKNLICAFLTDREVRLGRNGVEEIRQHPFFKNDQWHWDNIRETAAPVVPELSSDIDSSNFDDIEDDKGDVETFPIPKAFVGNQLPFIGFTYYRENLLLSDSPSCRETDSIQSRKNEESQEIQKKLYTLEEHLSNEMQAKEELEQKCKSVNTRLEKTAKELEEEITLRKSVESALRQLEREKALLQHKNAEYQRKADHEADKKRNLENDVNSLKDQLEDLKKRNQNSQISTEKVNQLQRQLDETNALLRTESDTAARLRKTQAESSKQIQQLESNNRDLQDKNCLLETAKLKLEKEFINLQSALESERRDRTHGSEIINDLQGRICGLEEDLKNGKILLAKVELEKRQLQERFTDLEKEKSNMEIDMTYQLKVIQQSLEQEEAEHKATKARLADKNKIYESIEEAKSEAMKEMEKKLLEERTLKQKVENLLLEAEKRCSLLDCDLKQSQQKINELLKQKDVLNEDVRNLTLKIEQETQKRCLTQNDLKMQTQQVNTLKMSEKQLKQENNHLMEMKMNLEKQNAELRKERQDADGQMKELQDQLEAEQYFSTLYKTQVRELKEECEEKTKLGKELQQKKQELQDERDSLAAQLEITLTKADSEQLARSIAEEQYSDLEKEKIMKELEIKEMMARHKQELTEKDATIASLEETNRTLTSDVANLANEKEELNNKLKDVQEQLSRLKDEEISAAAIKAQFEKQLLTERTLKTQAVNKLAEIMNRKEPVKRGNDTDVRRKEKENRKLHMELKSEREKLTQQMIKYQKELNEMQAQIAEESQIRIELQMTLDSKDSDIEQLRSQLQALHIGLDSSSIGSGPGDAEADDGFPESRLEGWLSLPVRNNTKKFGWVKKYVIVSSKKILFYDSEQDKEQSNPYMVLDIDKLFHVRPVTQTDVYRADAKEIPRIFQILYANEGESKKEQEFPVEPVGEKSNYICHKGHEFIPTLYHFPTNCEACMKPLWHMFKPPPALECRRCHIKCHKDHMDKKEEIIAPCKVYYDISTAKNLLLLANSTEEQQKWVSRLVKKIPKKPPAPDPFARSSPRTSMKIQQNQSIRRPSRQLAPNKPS

As to `CN(C)CCC(=O)N1CCN(c2ccc(NC(=O)c3cccc(CNc4ncc(-c5ccnc(N)n5)c5c4CCO5)c3)nc2)CC1` [Example 66, 3-(((7-(2-aminopyrimidin-4-yl)-2,3-dihydrofuro[3,2-c]pyridin-4-yl)amino)methyl)-N-(5-(4-(3-(dimethylamino)propanoyl)piperazin-1-yl)pyridin-2-yl)benzamide], the Ki at Rho kinase 1 (ROCK1) and at Rho kinase 2 (ROCK2) was not above 3 nM in each case. Moreover, on PKA, the “Ratio (PKA/ROCK2)” value was “*** (ratio≥10)”. Also, the inhibition in vivo at 0.01 mg/kg in assay [1] is 79.4 ± 7.3%.

For the origin of these results see US20240092791A1, “DIHYDROFUROPYRIDINE DERIVATIVES AS RHO-KINASE INHIBITORS” (CHIESI FARMACEUTICI S.P.A., priority 2020, published 2024).
